Results on one substance are retold here after US6852692B1, “Composition for promoting passive extension of bladder smooth muscle” (Shionogi & Co., Ltd., priority 1999, dated 2005).

The subject of experiment [1] is urinary bladder strips. Description: Extension of rat urinary bladder strips under 1 g tension (isotonic transducer). As to conditions: 100 nM adrenomedullin in Tyrode's solution, tension 1 g, male rat bladder strips, repeated five times, FIG. 2. The source says: 8 to 16 weeks old male rats were sacrificed by hammering their heads. Thereafter, the rats were decapitated, followed by exsanguination. The urinary bladders were isolated from the rats. Each isolated urinary bladder was cut into four portions, thereby obtaining urinary bladder strips (FIG. 1).
The effect of adrenomedullin on the rat urinary bladder was examined by measuring contractions of the urinary bladder strips using an isotonic transducer TD-112S (manufactured Nippon Kohden Corporation) where the tension was 1 g.
The urinary bladder strips were firstly immersed in 30 ml of Tyrode's solution with 100 nM adrenomedullin (experimental sample) or without it (control sample). In this situation, the sections were attached to the […] transducer where the tension was 1 g, to continuously measure relaxation of the urinary bladder. The composition of the Tyrode's solution is as follows: 139 mM NaCl, 2.7 mM KCl, 11.9 mM NaHCO3, 2.6 mM MgCl2.6H2O, 0.4 mM NaH2PO4.2H2O, 1.7 mM CaCl2, and 5.5 mM glucose; pH 7.4).
The above-described experiment was repeated five times. Solid colored circles indicate the results of the experimental sample, while plain circles indicate averages of the control sample. Vertical bars indicate the standard deviation of a two-way analysis of variance. The vertical axis indicates the length of relaxation (mm), while the horizontal axis indicate time (minutes).

Experiment [2] concerns urinary bladder strips. Nature of the experiment: Static tension and acetylcholine-induced contraction of rat urinary bladder strips (isometric transducer). How it is done: Urinary bladder strips were prepared in a manner similar to that of Example 1. The urinary bladder sections were attached to an isometric transducer FD pickup TB611T (manufactured by Nippon Kohden Corporation) in Tyrode's solution. Contraction of the urinary bladder was continuously measured. Firstly, 30 nM to 1 mM acetylcholine was added to the Tyrode's solution. […] In FIG. 3, the vertical axis indicates tension (unit: g), while the horizontal axis indicates time. Contraction induced by acetylcholine was confirmed, followed by washing out acetylcholine. Thereafter, 100 nM adrenomedullin was added to the Tyrode's solution. […] Further, 30 nM to 1 mM acetylcholine was added to the Tyrode's solution. As a result, recontraction of the urinary bladder occured.

A further experiment relates to mesenteric artery. To be noted: Nakamura et al., Jpn. J. Pharmacol. 67, 259-262 (1995), FIG. 1; cited from earlier work.
Another experiment relates to urinary bladder. As to conditions: Nishimura et al., British J. Pharmacology, 120, 193-200 (1997), FIG. 6; cited from earlier work.

In the case of “adrenomedullin: synthesized peptide consisting of an amino acid sequence from Tyr in position 1 to Tyr in position 50 of SEQ ID NO: 6 (rat-derived)”, the “extension (length of relaxation) of the urinary bladder wall versus absence of adrenomedullin” value with urinary bladder strips [1] was “more extended”. In the experiment on urinary bladder strips [2] (100 nM adrenomedullin in Tyrode's solution, after washing out acetylcholine, FIG. 3), the “contraction (static tension) of the urinary bladder after addition of adrenomedullin alone” value is given as “not contracted”. For the same substance, in the experiment on urinary bladder strips [2] (100 nM adrenomedullin, 30 nM to 1 mM acetylcholine), the “contraction induced by acetylcholine in the presence of adrenomedullin versus acetylcholine alone” value was “not significantly different”. Moreover, the “extension of contracted mesenteric artery by addition of adrenomedullin” value in the experiment on mesenteric artery is “extended by addition of adrenomedullin in a concentration-dependent manner”. Also, in the experiment on urinary bladder, the “contraction or extension (active extension) of the urinary bladder on addition of adrenomedullin” value is “does not cause contraction or extension”.
